Data set [1] deals with Spontaneous Man-PTS mutants of L. lactis IL1403. Description: 2-fold serial dilutions sensitivity assay, Table S3. The format is cell-based, Lactococcus lactis. An excerpt:
(§1) To identify the individual amino acid residues of Man-PTS required for the sensitivity to the newly defined bacteriocins, and thus probably involved in their interaction with the receptor, spontaneous mutants of L. lactis IL1403 and L. garvieae IBB3403 with resistance to individual bacteriocins and preserved Man-PTS functionality were selected. Out of the nine new bacteriocins, five (GarAG3, RhmB, LcnC, EntG1, and MurA) were potent enough to produce resistant mutants in their presence. In total, 34 resistant L. lactis IL1403 mutants were obtained, including three selected in the presence of RhmB, 15 in the presence of EntG1, 2—LcnC, and 14—MurA; 38 resistant L. garvieae IBB3403 mutants were obtained in the presence of GarAG3 (Table S1). They were 4- to over 1,024-fold less sensitive to the bacteriocin used for the selection than the parental strain and carried, respectively, a combined total of 11 and 10 independent mutations in the ptnCD genes of L. lactis IL1403 and the manCD genes of L. garvieae IBB3403. Ten mutations in L. lactis led to amino acid substitutions in IIC (Gly62Val, Ala110Thr, Met120Ile, and Ala187Val) or IID (Gly126Ser, Ala127Thr, Ser214Leu, Gly221Cys, Tyr223Cys, and Gly229Val), and one led to the deletion of eight amino acids (221-228GlyAlaTyrLeuGluPheProLys) in IID.
(§2) The activity of peptides of interest against indicator strains and L. garvieae IBB3403- or L. lactis IL1403-derived strains was determined using the spot-on-lawn assay as described previously ([7]). Spontaneous bacteriocin-resistant mutants were selected by growing L. garvieae IBB3403 or L. lactis IL1403 in the presence of a bacteriocin in CDM ([43]) supplemented with 1% mannose (Man-CDM) as described previously ([7]). GarAG3-resistant L. garvieae IBB3403 mutants (LG1—LG32, LG34–LG38, and LG40) were selected at the bacteriocin concentration of 0.024 µg/mL. L. lactis IL1403 mutants resistant to EntG1 (LLG1–LLG3, LLG7–LLG9, LLG11, LLG12, LLG14, LLG19, LLG21, LLG25, LLG32, LLG46, and LLG50), RhmB (LLB2, LLB3, and LLB17), MurA (LLA1, LLA7, LLA8, LLA12, LLA19–LLA22, LLA24, and LLA26–LLA30), and LcnC (LLC1, LLC2) were selected at bacteriocin concentrations of 12.5µg/mL, 1.56µg/mL, 1.56 µg/mL, and 4 ng/mL, respectively. The sensitivity of the mutants was determined using 2-fold serial dilutions assay as described previously ([7]).
Table S3. Spontaneous mutants of L. lactis IL1403 resistant to RhmB, EntG1, LcnC, MurA, GarQ, BacSJ, ubericin K, and GarC
(§3) Sensitivity to Position in the cell
(§4) Mutant strain Mutation Amino acid change [fold-decreased relative to WT] membrane of affected
RhmB EntG1 LcnC MurA GarQ BacSJ Ubericin GarC Man-PTS amino acid(s)
mutations GlyAlaTyrLeuGluPheProLys
“>” substitution; “del”deletion

Data set [2] concerns Spontaneous Man-PTS mutants of L. garvieae IBB3403. Description: 2-fold serial dilutions sensitivity assay, Table S4. In kind it is cell-based, Lactococcus garvieae.
Text: as §1, §2
Table S4. Spontaneous mutants of L. garvieae IBB3403 resistant to GarAG3, GarA, GarB, GarC, GarQ, MurA, and ubericin K
as §3, §4
GarAG3 GarA GarB GarC GarQ MurA Ubericin Man-PTS amino acid(s)
LG9 manD: 800G>T ManD: Gly267Val 16x 0x 8x 2x 4x 0.5x 4x extracellular (region γ+)
TTGTTGGTAACG 262_265delAsnValValGly
GTAACGGTGTTG 265_268delGlyAsnGlyVal
LGA10 manD: 173C>A ManD: Ala58Asp 8x 2x 4x 4x 2x 2x 8x transmembrane (HP2a)
5 μl of each bacteriocin at a concentration of 1 mg/ml was used; “>” substitution; “del”deletion; “ins” insertion

Data set [3] relates to Vero, HepG2, and Caco-2 cell lines. The conditions noted are these: ref [36], [37], cited from earlier work. An excerpt:
The use of bacteriocins as antibacterial agents offers a promising solution to some of the most challenging public health problems today, such as the emergence of difficult-to-treat infections caused by antibiotic-resistant pathogens ([29]) or the breakouts of foodborne diseases ([30]). Here, we have identified nine new bacteriocins of which five (MurA, MsnC, RhmB, AglA, and LcbC) could have potential in the treatment of infections caused by vancomycin-resistant Enterococcus faecium and Enterococcus faecalis strains ([31]), and four (MurA, MsnC, RhmB, and AglA) in the prevention of L. monocyto ...

Data set [4] addresses Man-PTS membrane complex IICIID of L. garvieae (ManCD) (L. garvieae (endogenous in L. garvieae IBB3403)).

Where two headings read alike, the source gives them in different places. Ends that are not written are not given here.

On to “EYHLMNGANGYLTRVNGKYVYRVTKDPVSAVFGVISNGWGSAGAGFGPQH [GarQ]”, for which the “Sensitivity to [fold-decreased relative to WT]” value is listed as 4 x in data set [1] (LLA1 etc. (MurA-resistant), PtnC: Ala110Thr); 0 x in data set [1] (LLB2,LLB3, PtnD: Gly126Ser); 256 x in data set [1] (LLB17, PtnD: Ser214Leu); 64 x in data set [1] (LLC1, LLC2, PtnC: Gly62Val); 16 x in data set [1] (LLG1, LLG2, PtnD: 221-228del); 16 x in data set [1] (LLG3, LLG9, LLG11, LLG32, LLG46, PtnD: Gly229Val). The “Sensitivity to [fold-decreased relative to WT]” value in data set [1] (LLG7, LLG19, LLG21, PtnD: Ala127Thr) is on record as 8 x; in data set [1] (LLG8, PtnD: Gly221Cys), 16 x; in data set [1] (LLG12, LLG14, PtnC: Ala187Val), 8 x; in data set [1] (LLG25, PtnD: Tyr223Cys), 16 x; in data set [1] (LLG50, PtnC: Met120Ile), 4 x; in data set [1] (LLN1, PtnD: Pro123His), more than 1024 x. Further, the “Sensitivity to [fold-decreased relative to WT]” value in data set [1] (M6, PtnD: Arg200His) turned out to be 8 x; in data set [1] (M16, PtnD: Leu83Phe), 0 x; in data set [1] (M19, PtnD: Phe226Ser), 8 x; in data set [1] (M30, PtnD: Leu197Phe) it was 16 x; in data set [2] (LG1 etc., ManD: Arg203Leu), 0 x; in data set [2] (LG2, ManC: Gly60Cys), 32 x. In addition, the “Sensitivity to [fold-decreased relative to WT]” value was 16 x in data set [2] (LG6, ManD: Trp256Leu); 4 x in data set [2] (LG9, ManD: Gly267Val); 2 x in data set [2] (LG11, 13, 22, 28, ManD: Arg203Cys); 4 x in data set [2] (LG12, ManD: 262_265delAsnValValGly); 4 x in data set [2] (LG18, ManD: 265_268delGlyAsnGlyVal); 4 x in data set [2] (LG23, 29, ManC: Gly188Val). The “Sensitivity to [fold-decreased relative to WT]” value in data set [2] (LG32, ManD: Ser318Leu) stood at 2 x; in data set [2] (LG36, ManC: Gly60Val), 128 x; in data set [2] (LGA2, ManC: Leu59Pro) it was 128 x; in data set [2] (LGA3, ManC: Gly52Val), 4 x; in data set [2] (LGA6, ManC:190_191insVal), 4 x; in data set [2] (LGA10, ManD: Ala58Asp), 2 x. Also, the “Sensitivity to [fold-decreased relative to WT]” value in data set [2] (LGB6, ManD: Gln313Lys) is recorded as 2 x; in data set [2] (LGC1, ManD: Met34Ile) it was 0 x; in data set [2] (LGC8, ManD: Tyr226Asp), 16 x; in data set [2] (LGC13, ManC: Ala106Val), 4 x; in data set [2] (LGC15, ManD: Ala133Val, Val315Met), 4 x; in data set [2] (LGN1, ManD: Gly301Val), more than 1024 x. In addition, the “Sensitivity to [fold-decreased relative to WT]” value in data set [2] (LGN2, ManD: Ala133Val) is listed as 16 x; in data set [2] (LGN9, ManC: Ala102Val), 16 x; in data set [2] (PW202, ManC: Pro100His), more than 1024 x; in data set [2] (PW203, ManD: Thr123Ile) it was more than 1024 x; in data set [2] (PW204, ManD: Pro111Ser) it was more than 1024 x. Also, the Cytotoxicity result in data set [3] (highly purified, concentrations up to 1 mg/mL) is listed as “no cytotoxicity”.
Turning to GarQ_(Tyr11Leu) (peptide), in data set [4], the minimum inhibitory concentration against L. garvieae IBB3403, fold decrease in activity relative to native GarQ was more than 512 fold.
The same measure, in the same setting: the figure for GarQ_(Asn9Gly) (peptide) is more than 512 fold.
Turning to “PedPA-1: subclass IIa pediocin-like bacteriocin (KYYGNGVTCGKHSCSVDWGKATTCIINNGAMAWATGGHQGNHKC; ends and bridges not checked; cysteine pairing not given here; UniProt P29430 19-62, looked up)”, the Cytotoxicity entry in data set [3] (up to 400 μg/mL) is recorded as “no cytotoxicity”.

The record behind these values is PMC11403280, “Subclass IId bacteriocins targeting mannose phosphotransferase system—Structural diversity and implications for receptor interaction and antimicrobial activity” (PNAS Nexus, 2024).
